From paper PMC2096561 (2004)

Biological target: GPR80 (GPR99, proposed P2Y15) (Homo sapiens, UniProt Q96P68)
Experiment: [3H]inositol phosphate accumulation in GPR80-expressing CHO and HEK293 cells
Assay type: cell-based

Chain of GPR80 (GPR99, proposed P2Y15) (Q96P68 whole entry): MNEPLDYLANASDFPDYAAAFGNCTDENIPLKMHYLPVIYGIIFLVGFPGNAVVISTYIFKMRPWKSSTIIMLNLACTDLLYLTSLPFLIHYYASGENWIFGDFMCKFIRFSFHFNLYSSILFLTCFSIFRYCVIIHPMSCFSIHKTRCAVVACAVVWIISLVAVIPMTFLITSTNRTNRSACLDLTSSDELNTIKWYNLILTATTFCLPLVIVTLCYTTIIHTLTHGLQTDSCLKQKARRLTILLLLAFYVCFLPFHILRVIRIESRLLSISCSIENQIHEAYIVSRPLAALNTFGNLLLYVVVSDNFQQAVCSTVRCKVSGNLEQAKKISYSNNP

SMILES: O=C(O)CCC(=O)C(=O)O [α-ketoglutarate]
- EC50: 140 ± 10 µM
